Assay results reported in ChEMBL document CHEMBL1909046, “DrugMatrix in vitro pharmacology data”.

What was measured:
[1] = DRUGMATRIX: Leukotriene, BLT (LTB4) radioligand binding (ligand: [3H]LTB4); format: cell membranes, Membrane; details: u-937; Not Active = under 50% inhibition at 10 µM
[2] = DRUGMATRIX: GABAA, Muscimol, Central radioligand binding (ligand: [3H] Muscimol); format: cell membranes, Rattus norvegicus, Wistar, Brain, Membrane; details: Not Active = under 50% inhibition at 10 µM
[3] = DRUGMATRIX: Sigma2 radioligand binding (ligand: [3H] Ifenprodil); format: cell membranes, Rattus norvegicus, Wistar, Brain, Membrane; details: Not Active = under 50% inhibition at 10 µM
[4] = biological target: T1, Calcitonin receptor (Homo sapiens, UniProt P30988); format: cell membranes, Membrane; details: t47d; also: in other assays of this panel Not Active means under 50% inhibition at 10 µM
T1 sequence (P30988 whole entry): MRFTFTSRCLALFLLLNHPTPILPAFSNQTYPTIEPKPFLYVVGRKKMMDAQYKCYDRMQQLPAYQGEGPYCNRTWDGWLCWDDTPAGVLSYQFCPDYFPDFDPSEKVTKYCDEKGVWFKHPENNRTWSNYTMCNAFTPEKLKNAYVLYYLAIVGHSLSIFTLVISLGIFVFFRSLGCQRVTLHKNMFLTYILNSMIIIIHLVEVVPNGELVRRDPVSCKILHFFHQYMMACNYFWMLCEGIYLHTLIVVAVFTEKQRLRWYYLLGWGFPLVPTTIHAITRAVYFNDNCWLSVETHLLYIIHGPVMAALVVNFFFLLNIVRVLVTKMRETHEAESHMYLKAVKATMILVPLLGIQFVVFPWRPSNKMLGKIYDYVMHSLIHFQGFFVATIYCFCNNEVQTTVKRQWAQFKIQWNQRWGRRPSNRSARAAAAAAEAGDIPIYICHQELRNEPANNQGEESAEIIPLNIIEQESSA

[5] = DRUGMATRIX: Phorbol Ester radioligand binding (ligand: [3H] PDBu); format: cell membranes, Mus musculus, ICR, Brain, Membrane; details: Not Active = under 50% inhibition at 10 µM
[6] = biological target: Tyrosine-protein kinase Lck (Homo sapiens, UniProt P06239); test: DRUGMATRIX: Protein Tyrosine Kinase, LCK enzyme inhibition (substrate: Poly(Glu:Tyr)); format: cell-based, Insect cells; details: insect cells; Not Active = under 50% inhibition at 10 µM
[7] = DRUGMATRIX: Glutamate, NMDA, Phencyclidine radioligand binding (ligand: [3H] TCP); format: cell membranes, Rattus norvegicus, Wistar, Cerebral cortex, Membrane; details: Not Active = under 50% inhibition at 10 µM
[8] = biological target: T2, Muscarinic acetylcholine receptor M2 (Homo sapiens, UniProt P08172); format: cell membranes, CHO-K1, Membrane; details: cho-k1; also: in other assays of this panel Not Active means under 50% inhibition at 10 µM
T2 sequence (P08172 whole entry): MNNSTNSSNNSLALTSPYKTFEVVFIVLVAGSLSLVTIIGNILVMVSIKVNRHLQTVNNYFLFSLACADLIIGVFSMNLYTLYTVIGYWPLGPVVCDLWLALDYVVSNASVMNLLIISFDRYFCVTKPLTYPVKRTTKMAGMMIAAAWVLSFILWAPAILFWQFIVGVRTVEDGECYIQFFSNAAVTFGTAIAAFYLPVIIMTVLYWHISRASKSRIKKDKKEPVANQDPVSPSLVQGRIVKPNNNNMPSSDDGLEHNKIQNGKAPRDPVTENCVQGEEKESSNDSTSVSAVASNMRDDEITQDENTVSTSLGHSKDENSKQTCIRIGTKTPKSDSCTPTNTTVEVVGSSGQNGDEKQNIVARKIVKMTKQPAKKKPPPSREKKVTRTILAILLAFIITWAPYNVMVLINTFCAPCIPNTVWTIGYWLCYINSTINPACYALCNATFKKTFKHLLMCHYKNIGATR

[9] = DRUGMATRIX: Calcium Channel Type L, Dihydropyridine radioligand binding (ligand: [3H] Nitrendipine); format: cell membranes, Rattus norvegicus, Wistar, Cerebral cortex, Membrane; details: Not Active = under 50% inhibition at 10 µM
[10] = biological target: T3, B2 bradykinin receptor (Homo sapiens, UniProt P30411); format: cell membranes, Membrane; details: chem-1; also: in other assays of this panel Not Active means under 50% inhibition at 10 µM
T3 sequence (P30411 whole entry): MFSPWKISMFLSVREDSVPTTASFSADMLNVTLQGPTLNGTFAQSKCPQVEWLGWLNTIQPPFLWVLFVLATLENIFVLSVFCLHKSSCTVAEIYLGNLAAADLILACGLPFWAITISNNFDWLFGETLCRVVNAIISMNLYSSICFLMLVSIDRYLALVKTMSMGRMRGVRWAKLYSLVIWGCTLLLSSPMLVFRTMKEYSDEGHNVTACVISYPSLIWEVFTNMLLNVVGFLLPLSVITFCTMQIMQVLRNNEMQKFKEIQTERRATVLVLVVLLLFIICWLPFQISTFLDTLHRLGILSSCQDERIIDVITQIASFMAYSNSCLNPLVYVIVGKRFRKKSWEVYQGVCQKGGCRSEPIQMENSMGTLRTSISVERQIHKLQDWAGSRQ

[11] = biological target: Beta-1 adrenergic receptor (Homo sapiens, UniProt P08588); test: DRUGMATRIX: Adrenergic beta1 radioligand binding (ligand: [125I] Cyanopindolol); format: cell membranes, CHO-K1, Membrane; details: cho-k1; Not Active = under 50% inhibition at 10 µM
[12] = biological target: Kappa-type opioid receptor (Homo sapiens, UniProt P41145); test: DRUGMATRIX: Opiate kappa (OP2, KOP) radioligand binding (ligand: [3H] Diprenorphine); format: cell membranes, HEK293, Membrane; details: hek293; Not Active = under 50% inhibition at 10 µM
[13] = DRUGMATRIX: GABAA, Flunitrazepam, Central radioligand binding (ligand: [3H] Flunitrazepam); format: cell membranes, Rattus norvegicus, Wistar, Brain, Membrane; details: Not Active = under 50% inhibition at 10 µM
[14] = biological target: C-C chemokine receptor type 2 (Homo sapiens, UniProt P41597); format: cell membranes, CHO-K1, Membrane; details: cho-k1; also: in other assays of this panel Not Active means under 50% inhibition at 10 µM
[15] = biological target: T4, Cholecystokinin receptor type A (Homo sapiens, UniProt P32238); format: cell membranes, Membrane; details: 1321-n1; also: in other assays of this panel Not Active means under 50% inhibition at 10 µM
T4 sequence (P32238 whole entry): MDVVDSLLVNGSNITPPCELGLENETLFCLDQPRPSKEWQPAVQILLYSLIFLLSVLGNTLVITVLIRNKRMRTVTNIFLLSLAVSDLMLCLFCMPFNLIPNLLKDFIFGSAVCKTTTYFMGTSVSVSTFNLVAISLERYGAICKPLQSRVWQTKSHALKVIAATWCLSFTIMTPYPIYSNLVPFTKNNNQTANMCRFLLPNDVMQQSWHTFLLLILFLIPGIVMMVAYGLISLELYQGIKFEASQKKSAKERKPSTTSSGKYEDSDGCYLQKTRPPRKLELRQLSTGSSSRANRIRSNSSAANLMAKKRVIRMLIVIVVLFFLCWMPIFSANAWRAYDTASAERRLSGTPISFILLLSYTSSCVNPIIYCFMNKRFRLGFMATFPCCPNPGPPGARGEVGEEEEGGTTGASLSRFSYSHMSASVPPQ

[16] = biological target: Beta-2 adrenergic receptor (Homo sapiens, UniProt P07550); test: DRUGMATRIX: Adrenergic beta2 radioligand binding (ligand: [3H] CGP-12177); format: cell membranes, Membrane; details: cho; Not Active = under 50% inhibition at 10 µM
Beta-2 adrenergic receptor, sequence (P07550 whole entry): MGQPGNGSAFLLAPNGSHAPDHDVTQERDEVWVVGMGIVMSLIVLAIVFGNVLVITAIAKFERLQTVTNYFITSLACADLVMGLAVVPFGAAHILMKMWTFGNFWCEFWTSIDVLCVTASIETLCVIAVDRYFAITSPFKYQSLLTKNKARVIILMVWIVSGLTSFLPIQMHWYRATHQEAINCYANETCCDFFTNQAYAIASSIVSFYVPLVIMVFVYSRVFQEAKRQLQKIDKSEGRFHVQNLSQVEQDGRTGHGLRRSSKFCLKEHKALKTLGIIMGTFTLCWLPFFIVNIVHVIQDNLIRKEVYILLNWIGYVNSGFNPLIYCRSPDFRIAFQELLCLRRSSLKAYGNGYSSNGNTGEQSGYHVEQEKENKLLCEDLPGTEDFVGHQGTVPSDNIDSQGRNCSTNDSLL

Beta-1 adrenergic receptor, sequence (P08588 whole entry): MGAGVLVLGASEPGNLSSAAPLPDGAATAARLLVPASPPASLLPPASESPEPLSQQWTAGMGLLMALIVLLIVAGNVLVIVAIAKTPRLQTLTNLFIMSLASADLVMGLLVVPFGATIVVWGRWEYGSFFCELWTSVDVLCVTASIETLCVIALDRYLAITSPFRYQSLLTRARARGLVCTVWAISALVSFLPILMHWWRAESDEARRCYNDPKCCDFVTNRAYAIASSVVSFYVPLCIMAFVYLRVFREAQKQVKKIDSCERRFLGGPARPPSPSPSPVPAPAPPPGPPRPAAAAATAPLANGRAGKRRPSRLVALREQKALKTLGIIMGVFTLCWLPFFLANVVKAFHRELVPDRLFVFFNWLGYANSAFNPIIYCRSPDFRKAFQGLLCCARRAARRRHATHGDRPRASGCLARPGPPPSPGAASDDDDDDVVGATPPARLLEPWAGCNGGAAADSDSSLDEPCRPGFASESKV
C-C chemokine receptor type 2, sequence (P41597 whole entry): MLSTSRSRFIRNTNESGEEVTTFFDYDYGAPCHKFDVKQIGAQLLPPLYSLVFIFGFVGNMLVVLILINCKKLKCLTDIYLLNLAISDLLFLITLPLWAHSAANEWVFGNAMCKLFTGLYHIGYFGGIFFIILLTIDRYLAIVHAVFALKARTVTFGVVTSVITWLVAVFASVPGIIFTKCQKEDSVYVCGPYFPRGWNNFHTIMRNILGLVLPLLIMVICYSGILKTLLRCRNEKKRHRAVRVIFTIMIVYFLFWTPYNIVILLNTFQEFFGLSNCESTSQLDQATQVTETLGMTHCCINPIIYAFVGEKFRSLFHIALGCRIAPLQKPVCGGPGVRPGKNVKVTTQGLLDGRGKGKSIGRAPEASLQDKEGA
Tyrosine-protein kinase Lck, sequence (P06239 whole entry): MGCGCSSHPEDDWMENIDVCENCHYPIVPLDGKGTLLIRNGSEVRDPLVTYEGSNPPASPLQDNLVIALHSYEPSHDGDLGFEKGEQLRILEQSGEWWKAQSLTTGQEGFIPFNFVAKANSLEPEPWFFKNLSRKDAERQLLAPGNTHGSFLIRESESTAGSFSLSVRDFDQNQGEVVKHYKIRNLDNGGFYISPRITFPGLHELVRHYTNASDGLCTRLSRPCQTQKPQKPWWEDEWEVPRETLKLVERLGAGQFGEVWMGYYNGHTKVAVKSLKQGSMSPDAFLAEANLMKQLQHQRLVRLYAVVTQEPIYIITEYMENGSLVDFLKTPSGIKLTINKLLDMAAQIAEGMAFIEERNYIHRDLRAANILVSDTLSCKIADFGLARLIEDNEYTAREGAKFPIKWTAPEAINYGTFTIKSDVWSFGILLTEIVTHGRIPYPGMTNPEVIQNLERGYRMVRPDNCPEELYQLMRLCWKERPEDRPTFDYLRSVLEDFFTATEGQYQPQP
Kappa-type opioid receptor, sequence (P41145 whole entry): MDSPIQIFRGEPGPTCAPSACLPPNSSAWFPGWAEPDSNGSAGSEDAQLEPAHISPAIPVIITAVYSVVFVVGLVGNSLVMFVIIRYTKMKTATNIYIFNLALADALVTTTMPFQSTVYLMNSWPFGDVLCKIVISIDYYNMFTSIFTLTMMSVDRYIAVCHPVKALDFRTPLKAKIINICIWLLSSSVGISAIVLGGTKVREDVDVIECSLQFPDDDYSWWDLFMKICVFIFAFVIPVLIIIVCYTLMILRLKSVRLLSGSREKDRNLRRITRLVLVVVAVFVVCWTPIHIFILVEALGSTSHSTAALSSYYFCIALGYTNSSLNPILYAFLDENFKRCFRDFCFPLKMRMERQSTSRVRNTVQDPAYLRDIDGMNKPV

Compound | IC50 [1] | Ki [1] | IC50 [2] | Ki [2] | IC50 [3] | IC50 [4] | IC50 [5] | Ki [5] | IC50 [6] | IC50 [7] | Ki [7] | IC50 [8] | IC50 [9] | Ki [9] | IC50 [10] | IC50 [11] | IC50 [12] | IC50 [14] | IC50 [15] | IC50 [16] | other results
c1ccc2[nH]c(-c3cscn3)nc2c1 [THIABENDAZOLE] | Not Active | Not Active | Not Active | Not Active | Not Active | Not Active | Not Active | Not Active | Not Active | Not Active | Not Active | Not Active | Not Active | Not Active | Not Active | Not Active | Not Active | Not Active | Not Active | Not Active | Ki [3]: Not Active; IC50 [13]: Not Active; Ki [13]: Not Active
Cc1ccc(C(=O)C(C)CN2CCCCC2)cc1 (stereo not drawn) [TOLPERISONE] | Not Active | Not Active | Not Active | Not Active |  | Not Active | Not Active | Not Active | Not Active | Not Active | Not Active | Not Active | Not Active | Not Active | Not Active | Not Active | Not Active | Not Active | Not Active | Not Active | IC50 ([3]; read-out: IC50): 3360 nM; Ki ([3]; read-out: Ki): 2070 nM; IC50 [13]: Not Active; Ki [13]: Not Active
NC(CO)(CO)CO [TROMETHAMINE] | Not Active | Not Active | Not Active | Not Active | Not Active | Not Active | Not Active | Not Active | Not Active | Not Active | Not Active | Not Active | Not Active | Not Active | Not Active | Not Active | Not Active | Not Active | Not Active | Not Active | Ki [3]: Not Active; IC50 [13]: Not Active; Ki [13]: Not Active
CN1[C@@H]2CC[C@H]1C[C@@H](OC(=O)c1c[nH]c3ccccc13)C2 [TROPISETRON] | Not Active | Not Active |  |  | Not Active | Not Active | Not Active | Not Active | Not Active | Not Active | Not Active | Not Active | Not Active | Not Active | Not Active | Not Active | Not Active | Not Active | Not Active | Not Active | IC50 ([2]; read-out: IC50): 3020 nM; Ki ([2]; read-out: Ki): 2400 nM; Ki [3]: Not Active; IC50 ([13]; read-out: IC50): 1140 nM; Ki ([13]; read-out: Ki): 926 nM
COc1cc(C(=O)NC2CCCNC2)cc(OC)c1OC (stereo not drawn) [TROXIPIDE] | Not Active | Not Active | Not Active | Not Active | Not Active | Not Active | Not Active | Not Active | Not Active | Not Active | Not Active | Not Active | Not Active | Not Active | Not Active | Not Active | Not Active | Not Active | Not Active | Not Active | Ki [3]: Not Active; IC50 [13]: Not Active; Ki [13]: Not Active
CC(C)[C@H](N)C(=O)OCCOCn1cnc2c(=O)nc(N)[nH]c21 [VALACYCLOVIR] | Not Active | Not Active | Not Active | Not Active | Not Active | Not Active | Not Active | Not Active | Not Active | Not Active | Not Active | Not Active | Not Active | Not Active | Not Active | Not Active | Not Active | Not Active | Not Active | Not Active | Ki [3]: Not Active; IC50 [13]: Not Active; Ki [13]: Not Active
